Measured values reported in patent US10016414B2, “Modulation of ubiquitination of synaptic proteins for the treatment of neurodegenerative and psychiatric disorders” (UNIVERSITY OF MASSACHUSETTS, priority 2010, dated 2018).
Several values for one entry are separate records, joined by “and”; a condition that tells them apart may be missing. Equal values may be shown once. Peptide text beside a SMILES is read from it. * marks the point of attachment. Cbz = O=C(OCc1ccccc1)*

Experiments:
[1] = test system: surface GluA1 (AMPAR) in hippocampal neurons; experiment: Aβ-induced AMPAR endocytosis: surface GluA1 in cultured hippocampal neurons; format: cell-based, rat; conditions: for GluA1 surface expression (GluA1 puncta normalized to SV2 puncta and to naïve cultures): 2 hrs, naïve 100%±4%, n=3
Method: A. Micrograph showing GluA2 surface expression upon Aβ treatment in the presence or absence of Nutlin-3. Rat hippocampal neurons were cultured, and treated with Aβ or Aβ together with either Nutlin-3 (5 μM) or HLI373 (15 μM) for 2 hours. The final concentration of Aβ was 0.3 ng/mL. Naïve and Nutlin-3 and HLI373 treatments, without Aβ treatment, were used as controls. Surface expression of AMPARs was measured by labeling the cultured neurons in vivo with an antibody to the AMPAR subunit GluA1, followed by confocal microscopy and immunofluorescence quantification by MetaMorph. The number of GluA1 puncta was normalized to SV2 puncta (a presynaptic marker) and to the value in control naïve cultures. […] Scale bar=5 μm. B. Bar graph showing quantification of the percentage of surface GluA1 in response to the various treatment described in A. Results are presented as mean±SEM.
Soluble amyloid beta (Aβ) peptides contribute directly to synapse loss and decreased dendritic spine density and glutamate receptors at the synapse. Moreover, Aβ has been reported to induce AMPAR internalization in cultured neurons. To evaluate the effect of Mdm2 inhibitors on this process, cultured rat hippocampal neurons were treated for 2 hrs with Aβ (or Aβ together with either Nutlin-3 (5 μM) or HLI-373 (15 μM). Aβ can be prepared from 7PA2 Chinese hamster ovary (CHO) cells stably expressing human amyloid precursor protein (APP)751 containing the V717 mutation (Walsh et al., 2005; Shankar et al., 2007; Shankar et al., 2011), and is also available commercially from, e.g., rPeptide (Bogart, G A). The concentration of Aβ in the hippocampal cultures was 0.3 ng/mL. Naïve and Nutlin-3 and HLI-373 treatments were used as controls. Surface expression of AMPARs was measured by labeling the cultured neurons in vivo with an antibody to the AMPAR subunit GluA1, followed by confocal microscopy and immunofluorescence quantification by MetaMorph. The number of GluA1 puncta was normalized to SV2 puncta (a presynaptic marker) and to the value in control naïve cultures (see FIGS. 8A and B).
Minimum inhibitor concentrations of Nutlin-3a or HLI-373, as well as any other Mdm2 inhibitor identified using the screens described supra, can be readily determined by using different ranges of inhibitor concentrations and assessing the effects of the particular concentrations on surface expression of AMPARs. Similar results are expected with other inhibitors of PSD-95 ubiquitination by Mdm2, such as PSD-95 inhibitors.

PSD-95 degradation = conditions: Colledge et al., 2003; cited from earlier work
3×Tg-AD mice = conditions: Martinez-Coria-LaFeria, 2010; cited from earlier work
PSD-95 ubiquitination = PSD-95 ubiquitination in acute forebrain slices (PSD-95 immunoprecipitation, ubiquitin/FK1/FK2 immunoblot); format: cell-based, mouse; conditions: wild-type slices; NMDA 100 μM, 3 min; 10 min after washout
[2] = test system: interaction of β-adaptin with PSD-95; experiment: NMDA-dependent interaction of PSD-95 with β-adaptin in acute forebrain slices (co-immunoprecipitation); format: cell-based, mouse; conditions: NMDA 100 μM, 3 min; for interaction of β-adaptin with PSD-95 (percentage of p53 knockout unstimulated control): n=3
Method: A. Immunoblot showing that NMDA receptors regulate the interaction of PSD-95 with β-adaptin. Acute forebrain slices from wild-type mice were stimulated with NMDA (100 μM, 3 min) and, after NMDA washout, incubated for additional 5 or 10 min.
B. Immunoblot showing that genetic deletion of Mdm2 reduces the NMDA-dependent interaction of PSD-95 with β-adaptin. Acute forebrain slices from p53 knockout (control) and Mdm2/p53 double knockout mice were stimulated with NMDA (100 μM, 3 min) and, after NMDA washout, incubated for an additional 5 or 10 min.
Acute forebrain slices were prepared as previously described (Patel et al., 2003; Zhang et al., 2008). Briefly, brains of adult wild-type, p53 knockout or Mdm2/p53 double knockout mice were isolated, and 300 μm coronal slices of forebrain (within the region corresponding approximately to Bregma −1.0 to −3.5 mm, containing the hippocampus) were prepared using a Vibratome (Leica Microsystems VT1000S) in ice-cold oxygenated artificial cerebrospinal fluid (ACSF: 117 mM NaCl, 1.7 mM KCl, 1.2 mM MgCl2, 2.5 mM CaCl2, 1.2 mM NaH2PO4, 25 mM NaHCO3, 11.5 mM glucose). Slices were preincubated in ACSF for 1 h before treatments and all experiments were conducted at 32° C. in 95% O2 and 5% CO2 incubator. NMDA treatment was conducted by incubating slices with 100 μM NMDA for 3 min in ACSFcLTD (124 mM NaCl, 5 mM KCl, 1.5 mM MgCl2, 2.5 mM CaCl2, 1.25 mM NaH2PO4, 26 mM NaHCO3, 10 mM glucose) (Lee et al., 1998). After agonist washout, the slices were further incubated in ACSF-cLTD for the time indicated (5-10 min). Slice lysates were prepared as previously described (Zhang et al., 2008) and PSD-95 immunoprecipitated from the lysates was analyzed by Western blot and quantified as described above. Values were expressed as mean±S.E.M. and statistically compared using analysis of variance (ANOVA).
PSD-95 is important for NMDAR-induced endocytosis of synaptic AMPARs (Colledge et al., 2003; Bhattacharyya et al., 2009) and a brief application of NMDA induces both a rapid and transient increase in PSD-95 ubiquitination, which peaks approximately 10 min after the onset of NMDA treatment (Colledge et al., 2003). […] Following a brief (3 min) stimulation with 100 μM NMDA, a treatment that induces AMPAR endocytosis (Bhattacharyya et al., 2009), acute forebrain slices from adult wildtype mice were analyzed at 5 min and 10 min after agonist washout. PSD-95 immunoprecipitated from slice lysates was analyzed for coimmunoprecipitation of β-adaptin and ubiquitination (FIG. 5A).
To further investigate whether ubiquitination of PSD-95 promotes the interaction of PSD-95 with β-adaptin, this interaction was investigated in acute brain slices derived from mice with a genetic deletion of the ubiquitin ligase Mdm2. Acute forebrain slices from adult Mdm2/p53 double knockout mice and control p53 knockout mice were analyzed at 5 min and 10 min after NMDA (100 μM, 3 min) washout. The interaction of PSD-95 with β-adaptin was assessed by immunoblot of PSD-95 immunoprecipitated from slice lysates (FIG. 5B).

[3] = test system: surface GluA2 (AMPAR) in hippocampal neurons; experiment: NMDA-induced AMPAR endocytosis: surface GluA2 by antibody feeding in hippocampal cultures; format: cell-based, rat; conditions: NMDA 100 μM for 3 min
Method: A. Micrograph showing GluA2 surface expression upon NMDA treatment in the presence or absence of Nutlin-3. Cultured hippocampal neurons were subjected to an antibody feeding protocol using an antibody that recognizes an extracellular domain of GluA2. The neurons were subsequently pretreated with Nutlin-3 (5 μM for 30 min) prior to NMDA treatment (100 μM for 3 min), followed by agonist washout. Neurons were incubated for an additional 15 min (with or without Nutlin-3) before immunocytochemical analysis of PSD-95 and surface GluA2 by confocal microscopy.
B. A bar graph depicting the proportion of GluA2 found at the surface of cultured hippocampal neurons upon treatment with or without NMDA, in the presence or absence of Nutlin-3. Results are presented as mean±SEM.
Brief stimulation of NMDARs induces AMPAR endocytosis in cultured neurons (Colledge et al., 2003; Bhattacharyya et al., 2009). To determine whether Nutlin-3a antagonizes NMDA-induced AMPAR endocytosis, measured as loss of surface AMPAR staining, the surface expression of GluA2 (a subunit of AMPARs in rat hippocampal cultures) was assessed. Surface GluA2 were labeled in vivo by an antibody feeding protocol using an antibody that recognizes an extracellular domain of GluA2 (Ehlers, 2000; Lin et al., 2000; Bhattacharyya et al., 2009). Neurons were pretreated with Nutlin-3a (5 μM for 30 min) prior to NMDA treatment. After brief stimulation with NMDA (100 μM for 3 min) and agonist washout, neurons were incubated for an additional 15 min (with or without Nutlin-3a) before immunocytochemical analysis of PSD-95 and surface GluA2 by confocal microscopy under the same settings. Immunostained puncta were quantified using MetaMorph software (3 neurons from 2 coverslips with approximately 450 puncta analyzed/condition) and the number of GluA2 puncta was normalized to the number of PSD-95 puncta.
Naïve and NMDA-stimulated conditions were used as controls. […]

CN(C)CCCNc1c2c(=O)n(C)c(=O)nc-2n(C)c2ccccc12 [HLI-373]
effect on loss of surface GluA1 induced by Aβ ([1]; Aβ 0.3 ng/mL, 2 hours, Nutlin-3 5 μM, HLI373 15 μM): prevented the loss of surface GluA1 induced by Aβ treatment
GluA1 surface expression (GluA1 puncta normalized to SV2 puncta and to naïve cultures) ([1]; co-treatment with Aβ 0.3 ng/mL, Nutlin 5 μM, HLI373 15 μM): 132.18%±11.33%
GluA1 surface expression (GluA1 puncta normalized to SV2 puncta and to naïve cultures) ([1]; inhibitor alone, without Aβ, Nutlin-3 5 μM, HLI-373 15 μM): 170.95%±5.37%

CC(C)C[C@@H](C=O)NC(=O)[C@H](CC(C)C)NC(=O)[C@H](CC(C)C)NC(=O)OCc1ccccc1 [MG132] (Cbz-Leu-Leu-Leu-aldehyde)
effect on PSD-95 degradation (PSD-95 degradation): protect PSD-95 from degradation

CC12CC3CC(C)(C1)CC(N)(C3)C2 [Memantine, 1-amino-3,5-dimethyl-adamantane]
AD-like neuropathology in 3×Tg-AD mice (3×Tg-AD mice): reduce AD-like neuropathology
cognition in 3×Tg-AD mice (3×Tg-AD mice): improve cognition

CN[C@H](CC(=O)O)C(=O)O [NMDA, N-Methyl-D-aspartic acid]
PSD-95 ubiquitination (FK2 immunoblot) versus unstimulated control (PSD-95 ubiquitination): increased ubiquitination at 10 min after NMDA washout
interaction of β-adaptin with PSD-95 (percentage of p53 knockout unstimulated control) ([2]; Mdm2/p53 double knockout slices, 5 min after washout): 45.6%±1.8%
interaction of β-adaptin with PSD-95 (percentage of p53 knockout unstimulated control) ([2]; Mdm2/p53 double knockout slices, 10 min after washout): 99.8%±43.7%
interaction of β-adaptin with PSD-95 (percentage of p53 knockout unstimulated control) ([2]; p53 knockout slices, 5 min after washout, control 100%±14.9%): 209.0%±72.6%
interaction of β-adaptin with PSD-95 (percentage of p53 knockout unstimulated control) ([2]; p53 knockout slices, 10 min after washout): 549.8%±168% and 549.8%±167.7%
coimmunoprecipitation of β-adaptin with PSD-95 versus unstimulated control ([2]; wild-type slices, 10 min after washout): coimmunoprecipitation of β-adaptin with PSD-95 10 min after NMDA washout
PSD-95 puncta following NMDA stimulation of naïve cultures [3]: did not decrease
GluA2 surface expression (GluA2 puncta normalized to PSD-95 puncta, versus naïve control) ([3]; then 15 min, no inhibitor, naïve 100%±9.47%, n=3): 41.95±9.63%
